pEC50: −log10 of the molar value. Bounds are passed on as bounds.

In the assay the test system is HEK293T cells carrying the ATF4 luciferase reporter. Briefly: ATF4-Luc assay, in vitro model of Vanishing Cell White Matter Disease (VWMD). Format: cell-based. The conditions noted are these: Homo sapiens, HEK-293T, 1 μg/mL tunicamycin, 7 hours, One Glo luminescence. The method in brief: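 Reporter cells were stably generated by retroviral transduction and puromycin selection, then seeded at 30,000 cells/well. Next day, cells received 1 μg/mL tunicamycin with 200 nM test compound for 7 h, and luciferase luminescence was read with a one-step reagent. Values reported as EC50.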
Regarding `Cc1nn(C)c(C(=O)NC23CC(NC(=O)COc4ccc(Cl)c(F)c4)(C2)C3)c1F` [Compound 499, N-{3-[2-(4-chloro-3-fluorophenoxy)acetamido]bicyclo[1.1.1]pentan-1-yl}-4-fluoro-1,3-dimethyl-1H-pyrazole-5-carboxamide], the pEC50 was over 7.30. Consider `Cc1nn(C)c(C(=O)NC23CC(NC(=O)COc4ccc(Cl)c(Cl)c4)(C2)C3)c1F` [Compound 500, N-{3-[2-(3,4-dichlorophenoxy)acetamido]bicyclo[1.1.1]pentan-1-yl}-4-fluoro-1,3-dimethyl-1H-pyrazole-5-carboxamide], for which the pEC50 was over 7.30. The result for `CC(=O)c1ccnc(C(=O)NC23CC(NC(=O)COc4ccc(Cl)c(F)c4)(C2)C3)c1` [Compound 501, 4-acetyl-N-{3-[2-(4-chloro-3-fluorophenoxy)acetamido]bicyclo[1.1.1]pentan-1-yl}pyridine-2-carboxamide] reads 5.70 to 6.00.

In the case of `CCCc1nc(C(=O)NC23CCC(NC(=O)COc4ccc(Cl)c(F)c4)(CC2)C(O)C3)cs1` (stereo not drawn) [Compound 502, N-{4-[2-(4-chloro-3-fluorophenoxy)acetamido]-3-hydroxybicyclo[2.2.2]octan-1-yl}-2-propyl-1,3-thiazole-4-carboxamide], the pEC50 was over 7.30. As for `Cc1noc(C(=O)NC23CCC(NC(=O)COc4ccc(Cl)c(F)c4)(CC2)C(O)C3)n1` (stereo not drawn) [Compound 503, N-{4-[2-(4-chloro-3-fluorophenoxy)acetamido]-3-hydroxybicyclo[2.2.2]octan-1-yl}-3-methyl-1,2,4-oxadiazole-5-carboxamide], the pEC50 is 6.60 to 7.30. With `Cc1nc(C(F)(F)F)c(C(=O)NC23CCC(NC(=O)COc4ccc(Cl)c(F)c4)(CC2)C(O)C3)s1` (stereo not drawn) [Compound 504, N-{4-[2-(4-chloro-3-fluorophenoxy)acetamido]-3-hydroxybicyclo[2.2.2]octan-1-yl}-2-methyl-4-(trifluoromethyl)-1,3-thiazole-5-carboxamide], the pEC50 is 6.60 to 7.30. In the case of `CC(=O)Nc1c(C)nn(C)c1C(=O)NC12CCC(NC(=O)COc3ccc(Cl)c(F)c3)(CC1)C(O)C2` (stereo not drawn) [Compound 505, 4-acetamido-N-{4-[2-(4-chloro-3-fluorophenoxy)acetamido]-3-hydroxybicyclo[2.2.2]octan-1-yl}-1,3-dimethyl-1H-pyrazole-5-carboxamide], the pEC50 is under 5.70. In the case of `Cc1cc(C(=O)NC23CCC(NC(=O)COc4ccc(Cl)c(F)c4)(CC2)C[C@@H]3O)n(C)n1` [Compound 506, N-{(2S)-4-[2-(4-chloro-3-fluorophenoxy)acetamido]-2-hydroxybicyclo[2.2.2]octan-1-yl}-1,3-dimethyl-1H-pyrazole-5-carboxamide], the pEC50 is 6.60 to 7.30. On to `O=C(COc1ccc(Cl)c(F)c1)NC12CC(NC(=O)c3ccccc3F)(C1)C2` [Compound 507, N-{3-[2-(4-chloro-3-fluorophenoxy)acetamido]bicyclo[1.1.1]pentan-1-yl}-2-fluorobenzamide], for which the pEC50 was 6.00 to 6.60.

Regarding `O=C(COc1ccc(Cl)c(F)c1)NC12CC(NC(=O)c3cccc(F)c3)(C1)C2` [Compound 508, N-{3-[2-(4-chloro-3-fluorophenoxy)acetamido]bicyclo[1.1.1]pentan-1-yl}-3-fluorobenzamide], the pEC50 is 6.60 to 7.30.

Turning to `O=C(COc1ccc(Cl)c(F)c1)NC12CC(NC(=O)c3cccc(F)c3F)(C1)C2` [Compound 509, N-{3-[2-(4-chloro-3-fluorophenoxy)acetamido]bicyclo[1.1.1]pentan-1-yl}-2,3-difluorobenzamide], the pEC50 is 6.00 to 6.60.

For `O=C(COc1ccc(Cl)c(F)c1)NC12CC(NC(=O)c3cc(F)ccc3F)(C1)C2` [Compound 510, N-{3-[2-(4-chloro-3-fluorophenoxy)acetamido]bicyclo[1.1.1]pentan-1-yl}-2,5-difluorobenzamide], the pEC50 is 6.00 to 6.60.

As to `O=C(COc1ccc(Cl)c(F)c1)NC12CC(NC(=O)c3ccc(F)cc3F)(C1)C2` [Compound 511, N-{3-[2-(4-chloro-3-fluorophenoxy)acetamido]bicyclo[1.1.1]pentan-1-yl}-2,4-difluorobenzamide], the pEC50 is 6.00 to 6.60. `O=C(COc1ccc(Cl)c(F)c1)NC12CC(NC(=O)c3c(F)cccc3F)(C1)C2` [Compound 512, N-{3-[2-(4-chloro-3-fluorophenoxy)acetamido]bicyclo[1.1.1]pentan-1-yl}-2,6-difluorobenzamide]: the negative logarithm of the EC50 (pEC50) was under 5.70.

Turning to `O=C(COc1ccc(Cl)c(F)c1)NC12CC(NC(=O)c3cc(F)cc(F)c3)(C1)C2` [Compound 513, N-{3-[2-(4-chloro-3-fluorophenoxy)acetamido]bicyclo[1.1.1]pentan-1-yl}-3,5-difluorobenzamide], the pEC50 was 6.60 to 7.30. For the molecule `O=C(COc1ccc(Cl)c(F)c1)NC12CC(NC(=O)c3ccc(F)c(F)c3)(C1)C2` [Compound 514, N-{3-[2-(4-chloro-3-fluorophenoxy)acetamido]bicyclo[1.1.1]pentan-1-yl}-3,4-difluorobenzamide], the pEC50 was 6.60 to 7.30.

For the molecule `CCc1cc(C(=O)NC23CCC(NC(=O)COc4ccc(Cl)c(F)c4)(CC2)C(O)C3)on1` (stereo not drawn) [Compound 515, N-{4-[2-(4-chloro-3-fluorophenoxy)acetamido]-3-hydroxybicyclo[2.2.2]octan-1-yl}-3-ethyl-1,2-oxazole-5-carboxamide], the pEC50 is over 7.30. For the molecule `Cc1nnc(C(=O)NC23CCC(NC(=O)COc4ccc(Cl)c(F)c4)(CC2)C(O)C3)o1` (stereo not drawn) [Compound 516, N-{4-[2-(4-chloro-3-fluorophenoxy)acetamido]-3-hydroxybicyclo[2.2.2]octan-1-yl}-5-methyl-1,3,4-oxadiazole-2-carboxamide], the pEC50 was 5.70 to 6.00. With `Cc1nn(C)c(C(=O)NC23CCC(NC(=O)COc4ccc(Cl)c(F)c4)(CC2)C(O)C3)c1F` (stereo not drawn) [Compound 517, N-{4-[2-(4-chloro-3-fluorophenoxy)acetamido]-3-hydroxybicyclo[2.2.2]octan-1-yl}-4-fluoro-1,3-dimethyl-1H-pyrazole-5-carboxamide], the negative-log EC50 (pEC50) is 6.60 to 7.30. Regarding `COc1ccc(C(=O)NC23CC(NC(=O)COc4ccc(Cl)c(F)c4)(C2)C3)c(F)c1` [Compound 518, N-{3-[2-(4-chloro-3-fluorophenoxy)acetamido]bicyclo[1.1.1]pentan-1-yl}-2-fluoro-4-methoxybenzamide], the pEC50 was 6.00 to 6.60. Consider `COc1cccc(C(=O)NC23CC(NC(=O)COc4ccc(Cl)c(F)c4)(C2)C3)c1F` [Compound 519, N-{3-[2-(4-chloro-3-fluorophenoxy)acetamido]bicyclo[1.1.1]pentan-1-yl}-2-fluoro-3-methoxybenzamide], for which the pEC50 was 6.60 to 7.30. Regarding `COc1ccc(F)c(C(=O)NC23CC(NC(=O)COc4ccc(Cl)c(F)c4)(C2)C3)c1` [Compound 520, N-{3-[2-(4-chloro-3-fluorophenoxy)acetamido]bicyclo[1.1.1]pentan-1-yl}-2-fluoro-5-methoxybenzamide], the pEC50 is 6.00 to 6.60. On to `O=C(COc1ccc(Cl)c(Cl)c1)NC12CC(NC(=O)c3ccccc3)(C1)C2` [Compound 521, N-{3-[2-(3,4-dichlorophenoxy)acetamido]bicyclo[1.1.1]pentan-1-yl}benzamide], for which the pEC50 was 6.60 to 7.30.

As to `O=C(COc1ccc(Cl)c(F)c1)NC12CCC(NC(=O)c3csc(C4CC4)n3)(CC1)CC2O` (stereo not drawn) [Compound 522, N-{4-[2-(4-chloro-3-fluorophenoxy)acetamido]-3-hydroxybicyclo[2.2.2]octan-1-yl}-2-cyclopropyl-1,3-thiazole-4-carboxamide], the negative-log EC50 (pEC50) is 6.60 to 7.30.

For `COCc1nc(C(=O)NC23CCC(NC(=O)COc4ccc(Cl)c(F)c4)(CC2)C(O)C3)cs1` (stereo not drawn) [Compound 523, N-{4-[2-(4-chloro-3-fluorophenoxy)acetamido]-3-hydroxybicyclo[2.2.2]octan-1-yl}-2-(methoxymethyl)-1,3-thiazole-4-carboxamide], the pEC50 is 6.60 to 7.30.

As to `CC(O)c1ccnc(C(=O)NC23CC(NC(=O)COc4ccc(Cl)c(F)c4)(C2)C3)c1` (stereo not drawn) [Compound 524, N-{3-[2-(4-chloro-3-fluorophenoxy)acetamido]bicyclo[1.1.1]pentan-1-yl}-4-(1-hydroxyethyl)pyridine-2-carboxamide], the pEC50 is 6.00 to 6.60. The result for `Cc1ccnc(C(=O)NC23CC(NC(=O)COc4ccc(Cl)c(F)c4)(C2)C3)c1` [Compound 525, N-{3-[2-(4-chloro-3-fluorophenoxy)acetamido]bicyclo[1.1.1]pentan-1-yl}-4-methylpyridine-2-carboxamide] reads 6.00 to 6.60. For the molecule `Cc1ccnc(C(=O)NC23CC(NC(=O)COc4ccc(Cl)c(Cl)c4)(C2)C3)c1` [Compound 526, N-{3-[2-(3,4-dichlorophenoxy)acetamido]bicyclo[1.1.1]pentan-1-yl}-4-methylpyridine-2-carboxamide], the negative logarithm of the EC50 (pEC50) was 6.00 to 6.60. In the case of `COc1cc(F)ccc1C(=O)NC12CC(NC(=O)COc3ccc(Cl)c(F)c3)(C1)C2` [Compound 527, N-{3-[2-(4-chloro-3-fluorophenoxy)acetamido]bicyclo[1.1.1]pentan-1-yl}-4-fluoro-2-methoxybenzamide], the pEC50 is 5.70 to 6.00. In the case of `COc1cccc(F)c1C(=O)NC12CC(NC(=O)COc3ccc(Cl)c(F)c3)(C1)C2` [Compound 528, N-{3-[2-(4-chloro-3-fluorophenoxy)acetamido]bicyclo[1.1.1]pentan-1-yl}-2-fluoro-6-methoxybenzamide], the pEC50 is under 5.70.

For `COc1ccccc1C(=O)NC12CC(NC(=O)COc3ccc(Cl)c(F)c3)(C1)C2` [Compound 529, N-{3-[2-(4-chloro-3-fluorophenoxy)acetamido]bicyclo[1.1.1]pentan-1-yl}-2-methoxybenzamide], the pEC50 is under 5.70. For `COc1ccc(C(=O)NC23CC(NC(=O)COc4ccc(Cl)c(F)c4)(C2)C3)cc1F` [Compound 530, N-{3-[2-(4-chloro-3-fluorophenoxy)acetamido]bicyclo[1.1.1]pentan-1-yl}-3-fluoro-4-methoxybenzamide], the negative logarithm of the EC50 (pEC50) was 6.00 to 6.60. Regarding `COc1cc(C(=O)NC23CC(NC(=O)COc4ccc(Cl)c(F)c4)(C2)C3)ccc1F` [Compound 531, N-{3-[2-(4-chloro-3-fluorophenoxy)acetamido]bicyclo[1.1.1]pentan-1-yl}-4-fluoro-3-methoxybenzamide], the pEC50 was 5.70 to 6.00.

For orientation: pEC50 means the EC50 on a negative log10 scale, so that one unit is a factor of ten.

The record behind these values is patent US10913727B2, “Modulators of the integrated stress pathway” (Calico Life Sciences LLC, priority 2016, dated 2021).
